“And” between values parts separate entries of the source, which are not always exact repeats. Equal values may be shown once.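 Cultured in 96-well plates, cells were exposed to test compound for 48 hours across five concentrations. GI50 = concentration required for 50% inhibition of growth. TGI is the concentration that stops growth completely.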 The source made the active and inactive calls. No stated cut-off is given here; in the data, active means GI50 below about 0.43 µM; inactive means the rest. Bounds are passed on as bounds.

The assay deals with MDA-MB-468 breast. The assay can be described thus: NCI anticancer screen, dose series, 48 h.
For `CC(=O)/C(=C/c1ccccc1)C(=O)CC(C)C`, the GI50 was 11.1 µM and the TGI is 28 µM.
For `CCN1CCC(Nc2ccnc3cc(Cl)ccc23)CC1` the same measures were 13.3 µM and 32 µM.
For `CCCCCCCCCCCCCCCC1=NCCN1` the same measures were 2.22 µM and 4.07 µM.
On to `CCCCOC(=O)c1ccc(N)cc1`, for which the GI50 was 84.6 µM and the TGI was more than 100 µM.
The corresponding values for `O=C(CCl)NCCNc1nccc(Nc2ccc(S(=O)(=O)Nc3ccccn3)cc2)n1` are 1.05 µM and 4.53 µM.
The corresponding values for `COc1ccc(C=Nc2c(C(=O)Nc3cccc(Cl)c3C)sc3nc(C)c(C(=O)/C=C/c4ccc(OC)cc4)cc23)cc1` are 0.2 µM and 2.2 µM.
On to `CCCc1n(Cc2ccc3ccccc3c2)cc[n+]1Cc1ccc2ccccc2c1`, for which the GI50 was 0.277 µM and the TGI amounted to 0.98 µM.
`O=C1/C=C/[C@@H](O)[C@@H]2C[C@@H](O)C[C@H]2/C=C/CCC[C@H](CCc2cccc3ccccc23)O1`: the GI50 was 0.0253 µM and the TGI is 0.0867 µM.
For `C=C1C(=O)O[C@H]2[C@H]1CC/C(COC(=O)NCc1c[nH]c3ccccc13)=C\CC[C@@]1(C)O[C@@H]21` the same measures were 0.82 µM and 3.58 µM.
`O=C(CC1(O)C(=O)N(Cc2ccccc2)c2ccc(Cl)cc21)c1ccc(C(=O)NCC2CCC3(CC2)OOC2(CCCCC2)OO3)cc1` (stereo not given): the GI50 is 1.27 µM and the TGI worked out at 4.26 µM.
For `O=C(O)[C@H](Cc1c[nH]c2ccccc12)N1C(=O)c2ccccc2C1=O` the same measures were more than 100 µM and more than 100 µM.
For `O=S(=O)(CCN1CCOCC1)Nc1cc(-c2ccc3ncnc(Nc4ccc(F)c(Cl)c4)c3c2)cnc1Cl` the same measures were 0.198 µM and 1.56 µM.
For `O=c1oc2ccc(I)cc2c(=O)n1-c1ccc(F)cc1F` the same measures were 2.23 µM and 5.69 µM.
With `O=C1/C(=C/c2ccccc2)CN(C(=O)C(Cl)Cl)C/C1=C\c1ccccc1`, the GI50 was 0.342 µM and the TGI was 1.38 µM.
As to `COc1ccc2c(c1)c(-c1nc(-c3c[nH]c4ncccc34)cs1)cn2CCCN1CCCCC1`, the GI50 is 1.86 µM and the TGI turned out to be 3.56 µM.
On to `CN(C)CCCN(CCC1CCCCC1)CCC1CCCCC1`, for which the GI50 was 1.46 µM and the TGI is 3.07 µM.
Regarding `Cc1ccc(Nc2nccc(N(C)c3ccc4c(C)n(C)nc4c3)n2)cc1S(N)(=O)=O`, the GI50 is 1.77 µM and 2.37 µM and 2.2 µM; the TGI is > 100 µM and > 10 µM and 45.2 µM.
Turning to `COC1C(O)CC(OC2CC(OC3CC(O[C@@H]4C(=O)c5c(cc6cc(OC7CC(OC8CC(O)C(O)C(C)O8)C(O)C(C)O7)c(C)c(O)c6c5O)CC4[C@H](OC)C(=O)O)OC(C)C3O)OC(C)C2O)OC1C` (stereo not given in full), the GI50 is 2.59 µM and the TGI is 12.4 µM.
The corresponding values for `COc1cc(C2CC(c3cccc(Nc4ccnc5cc(Cl)ccc45)c3)=NN2c2ccc(Cl)cc2)cc(OC)c1OC` (stereo not given) are 6.29 µM and more than 100 µM.
In the case of `COc1cc(OC)cc(-c2ccc(-c3ccc(C(=N)N)cn3)o2)c1`, the GI50 was 1.51 µM and the TGI was found to be 3.1 µM.
For the compound `NC(=NCc1ccccc1)C(N=Nc1ccccc1)C(=O)NCc1ccccc1` (stereo not given), the GI50 was 11.5 µM and the TGI amounted to 26.4 µM.
For `Cc1ccc2oc(=O)cc(/C(=C3/C=CC=N3)c3ccc[nH]3)c2c1` the same measures were 0.243 µM and 1.02 µM.
For `CCCCC(CCCCCC(CCCC)NCc1ccc2c(c1)OCO2)NCc1ccc2c(c1)OCO2` (stereo not given) the same measures were 0.48 µM and 0.981 µM.
With `COc1ccc(/C=C2\CN(C(=O)C(Cl)Cl)C/C(=C\c3ccc(OC)cc3)C2=O)cc1`, the GI50 is 1.04 µM and the TGI was 2.74 µM.
`Cn1c(=O)c(Oc2ccc(F)cc2F)cc2cnc(NC(C)(C)CO)nc21`: the GI50 was more than 25 µM and the TGI is more than 25 µM.
In the case of `Cn1ccnc1C(=O)/C=C/c1ccc(NC(=O)Nc2ccccc2)cc1`, the GI50 was 11.4 µM and the TGI was 27.5 µM.
For the compound `CCCCN1CCCC[C@@H]1C(=O)N[C@H](C(=O)N(C)[C@H](C[C@@H](OC(C)=O)c1nc(C(=O)NC2CCC(C(=O)OC)CC2)cs1)C(C)C)C(C)C` (stereo not given in full), the GI50 was 0.707 µM and the TGI was determined as 8.18 µM.
The corresponding values for `Cc1c(-c2ccc(C3CCCCC3)cc2)nc2ccc(F)cc2c1C(=O)O` are 19.1 µM and more than 100 µM.
As for `Nc1c(C(=O)Nc2ccccc2)sc2nc3c(cc12)CCCCC3`, the GI50 is 0.254 µM and the TGI was 0.946 µM.
The corresponding values for `CSc1c(C2=C(c3cn(C)c4ccccc34)C(=O)NC2=O)c2ccccc2n1C` are 0.562 µM and more than 25 µM.
`C=C1CC2(CC(c3ccccc3Cl)OC(c3ccccc3Cl)C2)OC1=O` (stereo not given): the GI50 is 1.75 µM and the TGI is 3.43 µM.
In the case of `COc1cc2c(c(OC)c1OC)-c1ccc(O)cc1[C@@H](NC(C)=O)CC2`, the GI50 is 0.0244 µM and the TGI was 0.0684 µM.
The corresponding values for `CC/C=C\C[C@H](F)C/C=C1/C(=O)C=C[C@@H]1C/C=C\CCCC(=O)OC` are 5.26 µM and 17.2 µM.
`Oc1ccc(Nc2ccc3ccccc3c2)cc1`: the GI50 was 8.05 µM and the TGI came out at 26.7 µM.
For `CC(C)(C)Nc1nc2c(OCCc3ccccc3)cccn2c1-c1cccc(Oc2ccccc2)c1` the same measures were 2.2 µM and 6.75 µM.
The corresponding values for `CC1CCN(Cc2ccc(NC(=O)c3cc4ccc5cccnc5c4[nH]3)cc2)CC1` are 2.61 µM and 16.3 µM.
As to `CCCCCCCCCCCCCCCCCc1nccn1CCOCCO`, the outcome was inactive.
Consider `C[C@H]1/C(=C/C(=O)OCCN(C)C)CC[C@H]2[C@H]1C(=O)C[C@H]1C(C)(C)[C@@H](O)CC[C@]21C`, for which the GI50 was more than 100 µM and the TGI was more than 100 µM.

(Values after PubChem BioAssay (NCI).)
